Measurements: publication PMC11045757, “Group 3 medulloblastoma transcriptional networks collapse under domain specific EP300/CBP inhibition” (Nature Communications, 2024)

Test system: 460 barcoded cancer cell lines
Test: PRISM pooled barcoded cancer cell line growth screen, 10-point dose-response, 5 days, AUC
Type: cell-based
Set-up: scale not given here
Source text: Several small molecule inhibitors of distinct protein domains of EP300/CBP are available, though the majority target the histone acetyltransferase domain (HAT) or bromodomain (BRD)[5],[10],[21],[22]. […] We used these tools to investigate the relative contribution of the EP300/CBP BRD or HAT domain to tumor cell growth (Fig. 1a). To do so, we performed 10-point, dose-response growth assays using mixed pools of 460 barcoded cancer cell lines, over five days of treatment in vitro[33],[34]. Growth was measured using an area-under-the-curve (AUC) approach (Supplementary Table 1, Supplementary Fig. 1a). […] Given potential differences in compound penetration and solubility, and to compare the relative cell line and tumor-specific effects of these two compounds in assays performed non-simultaneously, we performed a median normalization of each dataset (Supplementary Table 2).

Compound: CO[C@H]1CC[C@H](n2c([C@@H]3CCCC(=O)N3c3ccc(F)c(F)c3)nc3cc(-c4c(C)noc4C)ccc32)CC1 [CCS1477]
- AUC (SF539, Glioma): 0.9912
- AUC (SH4, Melanoma): 0.9252
- AUC (SH10TC, Gastric Cancer): 0.7637
- AUC (SHP77, Lung Cancer): 0.791
- AUC (SIMA, Neuroblastoma): 0.8003
- AUC (SJSA1, Osteosarcoma): 0.881
- AUC (SKES1, Ewing Sarcoma): 0.7015
- AUC (SKHEP1, Liver Cancer): 0.9726
- AUC (SKM1, AML): 0.6213
- AUC (SKMEL30, Melanoma): 0.7984
- AUC (SKMES1, Lung Cancer): 0.9581
- AUC (SKMM2, Myeloma): 0.9554
- AUC (SKNAS, Neuroblastoma): 0.9789
- AUC (SKNBE2, Neuroblastoma): 0.6208
- AUC (SKNDZ, Neuroblastoma): 0.8143
- AUC (SKNEP1, Ewing Sarcoma): 0.8025
- AUC (SKNMC, Ewing Sarcoma): 0.8546
- AUC (SKNO1, AML): 0.6432
- AUC (SKNSH, Neuroblastoma): 0.8336
- AUC (SKOV3, Ovarian Cancer): 0.9975
- AUC (SKUT1, Leiomyosarcoma): 0.8326
- AUC (SNU1, Gastric Cancer): 0.9131
- AUC (SNU46, Head and Neck Cancer): 0.9224
- AUC (SNU61, Colon/Colorectal Cancer): 0.9346
- AUC (SNU81, Colon/Colorectal Cancer): 1
- AUC (SNU182, Liver Cancer): 0.7735
- AUC (SNU201, Glioblastoma): 0.712
- AUC (SNU213, Pancreatic Cancer): 0.9853
- AUC (SNU216, Gastric Cancer): 0.9769
- AUC (SNU245, Bile Duct Cancer): 0.8366
- AUC (SNU407, Colon/Colorectal Cancer): 0.9923
- AUC (SNU423, Liver Cancer): 0.9162
- AUC (SNU449, Liver Cancer): 0.9509
- AUC (SNU466, Glioblastoma): 0.9993
- AUC (SNU478, Bile Duct Cancer): 0.6392
- AUC (SNU601, Gastric Cancer): 0.8941
- AUC (SNU668, Gastric Cancer): 0.9591
- AUC (SNU685, Endometrial/Uterine Cancer): 0.9601
- AUC (SNU719, Gastric Cancer): 0.914
- AUC (SNU869, Bile Duct Cancer): 0.9994
- AUC (SNU878, Liver Cancer): 0.7965
- AUC (SNU886, Liver Cancer): 1
- AUC (SNU1041, Head and Neck Cancer): 0.8828
- AUC (SNU1066, Head and Neck Cancer): 1
- AUC (SNU1076, Head and Neck Cancer): 0.8929
- AUC (SNU1077, Endometrial/Uterine Cancer): 0.9948
- AUC (SNU1079, Bile Duct Cancer): 0.994
- AUC (SNU1105, Glioblastoma): 0.9872
- AUC (SNU1196, Bile Duct Cancer): 0.8873
- AUC (SNU1214, Head and Neck Cancer): 0.7307
- AUC (SNUC2A, Colon/Colorectal Cancer): 0.8028
- AUC (SNUC4, Colon/Colorectal Cancer): 0.894
- AUC (SQ1, Lung Cancer): 0.8902
- AUC (SR786, Lymphoma): 0.7905
- AUC (STM9101, Rhabdoid): 0.9061
- AUC (SUDHL8, Lymphoma): 0.8983
- AUC (SW48, Colon/Colorectal Cancer): 1
- AUC (SW579, Thyroid Cancer): 0.9957
- AUC (SW620, Colon/Colorectal Cancer): 1
- AUC (SW780, Bladder Cancer): 0.8694
- AUC (SW837, Colon/Colorectal Cancer): 0.8996
- AUC (SW900, Lung Cancer): 0.9538
- AUC (SW948, Colon/Colorectal Cancer): 0.8065
- AUC (SW1088, Glioma): 0.9904
- AUC (SW1116, Colon/Colorectal Cancer): 0.8985
- AUC (SW1463, Colon/Colorectal Cancer): 0.8864
- AUC (SW1710, Bladder Cancer): 1
- AUC (T3M10, Lung Cancer): 0.9279
- AUC (T24, Bladder Cancer): 0.9961
- AUC (T47D, Breast Cancer): 0.8791
- AUC (TALL1, T-acute leukemia): 0.9864
- AUC (TC71, Ewing Sarcoma): 0.7599
- AUC (TC106, Ewing Sarcoma): 1
- AUC (TC205, Ewing Sarcoma): 0.7558
- AUC (TCCPAN2, Pancreatic Cancer): 0.9414
- AUC (TCCSUP, Bladder Cancer): 0.982
- AUC (TE1, Esophageal Cancer): 1
- AUC (TE4, Esophageal Cancer): 1
- AUC (TE6, Esophageal Cancer): 0.9744
- AUC (TE9, Esophageal Cancer): 0.9981
- AUC (TE10, Esophageal Cancer): 0.7792
- AUC (TE11, Esophageal Cancer): 0.9258
- AUC (TE15, Esophageal Cancer): 0.8586
- AUC (TE617T, Rhabdomyosarcoma): 0.9947
- AUC (TF1, AML): 0.6668
- AUC (TM87, Rhabdoid): 0.9581
- AUC (TOLEDO, Lymphoma): 0.9697
- AUC (TOV21G, Ovarian Cancer): 0.9924
- AUC (TT2609C02, Thyroid Cancer): 0.8798
- AUC (TT, Thyroid Cancer): 0.7695
- AUC (TTC442, Rhabdomyosarcoma): 0.8425
- AUC (TTC549, Rhabdoid): 0.9131
- AUC (TTC642, Rhabdoid): 0.7844
- AUC (TTC1240, Rhabdoid): 0.4497
- AUC (TYKNU, Ovarian Cancer): 0.8502
- AUC (U2OS, Osteosarcoma): 0.8623
- AUC (U266B1, Myeloma): 0.9866
- AUC (U937, AML): 0.7957
- AUC (UACC62, Melanoma): 0.8964
- AUC (UACC257, Melanoma): 0.9638
- AUC (UBLC1, Bladder Cancer): 0.695
- AUC (UMUC1, Bladder Cancer): 0.8319
- AUC (UW228, Medulloblastoma): 0.9704
- AUC (VMCUB1, Bladder Cancer): 0.7437
- AUC (VMRCRCW, Kidney Cancer): 0.9159
- AUC (VMRCRCZ, Kidney Cancer): 0.8277
- AUC (WM88, Melanoma): 0.9177
- AUC (WM793, Melanoma): 0.9978
- AUC (WM983B, Melanoma): 0.8412
- AUC (YAPC, Pancreatic Cancer): 1
- AUC (YD10B, Head and Neck Cancer): 0.8679
- AUC (YD15, Head and Neck Cancer): 0.7679
- AUC (YD38, Head and Neck Cancer): 0.6898
- AUC (YH13, Glioblastoma): 0.9673
